# Assay results taken from PubChem BioAssay AID1963829 (Molecular Pharmacology Branch, DTP, NCI, 2024).
# pIC50: −log10 of the molar value.
# Test system: 935938-334-R-J1-PDC complex spheroid viability
# Experiment: Anticancer human tumor 935938-334-R-J1-PDC patient-derived small intestine adenocarcinoma cell line growth inhibition [POLQ]
# Conditions: for pIC50: curve of first compound; for viability, T/C: stronger effect = lower value
# Summary of the method: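 Growth inhibition in 3D: complex spheroids (tumor PDC, HUVEC, MSC) treated with POLQ inhibitor combinations; where Cmax unknown, highest tested concentration 10 microM, except SN-38 at 1 microM.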
# [1] = second compound 0.0316 µM, first compound 0.0316 µM
# [2] = second compound 0.0316 µM, first compound 0.1 µM
# [3] = second compound 0.0316 µM, first compound 0.316 µM
# [4] = second compound 0.0316 µM, first compound 1 µM
# [5] = second compound 0.0316 µM, first compound 3.16 µM
# [6] = second compound 0.0316 µM, first compound 10 µM
# [7] = second compound 0.1 µM, first compound 0.0316 µM
# [8] = second compound 0.1 µM, first compound 0.1 µM
# [9] = second compound 0.1 µM, first compound 0.316 µM
# [10] = second compound 0.1 µM, first compound 1 µM
# [11] = second compound 0.1 µM, first compound 3.16 µM
# [12] = second compound 0.1 µM, first compound 10 µM
# [13] = second compound 0.316 µM, first compound 0.0316 µM
# [14] = second compound 0.316 µM, first compound 0.1 µM
# [15] = second compound 0.316 µM, first compound 0.316 µM
# [16] = second compound 0.316 µM, first compound 1 µM
# [17] = second compound 0.316 µM, first compound 3.16 µM
# [18] = second compound 0.316 µM, first compound 10 µM
# [19] = second compound 1 µM, first compound 0.0316 µM
# [20] = second compound 1 µM, first compound 0.1 µM
# [21] = second compound 1 µM, first compound 0.316 µM
# [22] = second compound 1 µM, first compound 1 µM
# [23] = second compound 1 µM, first compound 3.16 µM
# [24] = second compound 1 µM, first compound 10 µM
# [25] = second compound 3.16 µM, first compound 0.0316 µM
# [26] = second compound 3.16 µM, first compound 0.1 µM
# [27] = second compound 3.16 µM, first compound 0.316 µM
# [28] = second compound 3.16 µM, first compound 1 µM
# [29] = second compound 3.16 µM, first compound 3.16 µM
# [30] = second compound 3.16 µM, first compound 10 µM
# [31] = second compound 10 µM, first compound 0.0316 µM
# [32] = second compound 10 µM, first compound 0.1 µM
# [33] = second compound 10 µM, first compound 0.316 µM
# [34] = second compound 10 µM, first compound 1 µM
# [35] = second compound 10 µM, first compound 3.16 µM
# [36] = second compound 10 µM, first compound 10 µM
# 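Note: spheroids exposed to drugs for seven days before viability read.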
# 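Throughout, for viability, T/C: 100% = DMSO vehicle control wells.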
compound,measurement,setting,value
CC1COCCN1c1cc(C2(S(C)(=N)=O)CC2)nc(-c2ccnc3[nH]ccc23)n1 (stereo not drawn) + Nc1ccc(C#CCN(C(=O)Cc2ncc(C(F)(F)F)cc2C(F)(F)F)c2ccc(F)cc2)nn1,pIC50,second compound 0.0316 µM,5.42
same,pIC50,second compound 0.1 µM,5.63
same,pIC50,second compound 0.316 µM,5.49
same,pIC50,second compound 1 µM,5.61
same,pIC50,second compound 3.16 µM,5.72
same,pIC50,second compound 10 µM,5.74
same,"viability, T/C",[1],105%
same,"viability, T/C",[2],83.7%
same,"viability, T/C",[3],97.7%
same,"viability, T/C",[4],76.1%
same,"viability, T/C",[5],58.7%
same,"viability, T/C",[6],15.2%
same,"viability, T/C",[7],104%
same,"viability, T/C",[8],117%
same,"viability, T/C",[9],91.8%
same,"viability, T/C",[10],91%
same,"viability, T/C",[11],35%
same,"viability, T/C",[12],16%
same,"viability, T/C",[13],83.9%
same,"viability, T/C",[14],96.8%
same,"viability, T/C",[15],96.7%
same,"viability, T/C",[16],82.8%
same,"viability, T/C",[17],50.9%
same,"viability, T/C",[18],14.2%
same,"viability, T/C",[19],118%
same,"viability, T/C",[20],98.6%
same,"viability, T/C",[21],94.2%
same,"viability, T/C",[22],78.2%
same,"viability, T/C",[23],38.8%
same,"viability, T/C",[24],22.6%
same,"viability, T/C",[25],93.5%
same,"viability, T/C",[26],93.2%
same,"viability, T/C",[27],108%
same,"viability, T/C",[28],70.5%
same,"viability, T/C",[29],34.1%
same,"viability, T/C",[30],17.9%
same,"viability, T/C",[31],106%
same,"viability, T/C",[32],111%
same,"viability, T/C",[33],137%
same,"viability, T/C",[34],75.3%
same,"viability, T/C",[35],36.8%
same,"viability, T/C",[36],16%
O=c1[nH]cc(F)c(=O)[nH]1 + Nc1ccc(C#CCN(C(=O)Cc2ncc(C(F)(F)F)cc2C(F)(F)F)c2ccc(F)cc2)nn1,pIC50,second compound 0.0316 µM,< 5.00
same,pIC50,second compound 0.1 µM,< 5.00
same,pIC50,second compound 0.316 µM,< 5.00
same,pIC50,second compound 1 µM,< 5.00
same,pIC50,second compound 3.16 µM,< 5.00
same,pIC50,second compound 10 µM,< 5.00
same,"viability, T/C",[1],83%
same,"viability, T/C",[2],88.5%
same,"viability, T/C",[3],87.4%
same,"viability, T/C",[4],68.5%
same,"viability, T/C",[5],62.7%
same,"viability, T/C",[6],48.8%
same,"viability, T/C",[7],101%
same,"viability, T/C",[8],92.9%
same,"viability, T/C",[9],82.1%
same,"viability, T/C",[10],66.3%
same,"viability, T/C",[11],60.7%
same,"viability, T/C",[12],53.4%
same,"viability, T/C",[13],81.5%
same,"viability, T/C",[14],74.1%
same,"viability, T/C",[15],88.9%
same,"viability, T/C",[16],68.4%
same,"viability, T/C",[17],55.8%
same,"viability, T/C",[18],56.5%
same,"viability, T/C",[19],103%
same,"viability, T/C",[20],79.7%
same,"viability, T/C",[21],104%
same,"viability, T/C",[22],68.9%
same,"viability, T/C",[23],55%
same,"viability, T/C",[24],61%
same,"viability, T/C",[25],92.2%
same,"viability, T/C",[26],85.8%
same,"viability, T/C",[27],86.6%
same,"viability, T/C",[28],62.1%
same,"viability, T/C",[29],61%
same,"viability, T/C",[30],53.7%
same,"viability, T/C",[31],125%
same,"viability, T/C",[32],101%
same,"viability, T/C",[33],91.8%
same,"viability, T/C",[34],58.3%
same,"viability, T/C",[35],52.4%
same,"viability, T/C",[36],56.7%
Cn1ncnc1[C@H]1c2n[nH]c(=O)c3cc(F)cc(c23)N[C@@H]1c1ccc(F)cc1 + Cc1cccc(N(C)C(=O)C2C(O)CCN2c2nc(C)cc(C(F)(F)F)c2C#N)c1,pIC50,second compound 0.0316 µM,< 7.00
same,pIC50,second compound 0.1 µM,< 7.00
same,pIC50,second compound 0.316 µM,< 7.00
same,pIC50,second compound 1 µM,< 7.00
same,pIC50,second compound 3.16 µM,< 7.00
same,pIC50,second compound 10 µM,< 7.00
same,"viability, T/C","second compound 0.0316 µM, first compound 0.000316 µM",143%
same,"viability, T/C","second compound 0.0316 µM, first compound 0.001 µM",88.6%
same,"viability, T/C","second compound 0.0316 µM, first compound 0.00316 µM",102%
same,"viability, T/C","second compound 0.0316 µM, first compound 0.01 µM",94.5%
same,"viability, T/C",[1],97.8%
same,"viability, T/C",[2],102%
same,"viability, T/C","second compound 0.1 µM, first compound 0.000316 µM",85.5%
same,"viability, T/C","second compound 0.1 µM, first compound 0.001 µM",91.3%
same,"viability, T/C","second compound 0.1 µM, first compound 0.00316 µM",107%
same,"viability, T/C","second compound 0.1 µM, first compound 0.01 µM",143%
same,"viability, T/C",[7],111%
same,"viability, T/C",[8],70%
same,"viability, T/C","second compound 0.316 µM, first compound 0.000316 µM",108%
same,"viability, T/C","second compound 0.316 µM, first compound 0.001 µM",107%
same,"viability, T/C","second compound 0.316 µM, first compound 0.00316 µM",80.5%
same,"viability, T/C","second compound 0.316 µM, first compound 0.01 µM",108%
same,"viability, T/C",[13],91%
same,"viability, T/C",[14],83.4%
same,"viability, T/C","second compound 1 µM, first compound 0.000316 µM",89.8%
same,"viability, T/C","second compound 1 µM, first compound 0.001 µM",99.6%
same,"viability, T/C","second compound 1 µM, first compound 0.00316 µM",97.7%
same,"viability, T/C","second compound 1 µM, first compound 0.01 µM",82.1%
same,"viability, T/C",[19],114%
same,"viability, T/C",[20],60.4%
same,"viability, T/C","second compound 3.16 µM, first compound 0.000316 µM",125%
same,"viability, T/C","second compound 3.16 µM, first compound 0.001 µM",80.8%
same,"viability, T/C","second compound 3.16 µM, first compound 0.00316 µM",105%
same,"viability, T/C","second compound 3.16 µM, first compound 0.01 µM",88.5%
same,"viability, T/C",[25],89.9%
same,"viability, T/C",[26],89.6%
same,"viability, T/C","second compound 10 µM, first compound 0.000316 µM",103%
same,"viability, T/C","second compound 10 µM, first compound 0.001 µM",87.5%
same,"viability, T/C","second compound 10 µM, first compound 0.00316 µM",77.6%
same,"viability, T/C","second compound 10 µM, first compound 0.01 µM",118%
same,"viability, T/C",[31],87.9%
same,"viability, T/C",[32],89%
CC1COCCN1c1cc(C2(O)CC3CCC(C2)O3)c2cnn(-c3ccn[nH]3)c2n1 (stereo not drawn) + Cc1cccc(N(C)C(=O)C2C(O)CCN2c2nc(C)cc(C(F)(F)F)c2C#N)c1,pIC50,second compound 0.0316 µM,6.43
same,pIC50,second compound 0.1 µM,6.58
same,pIC50,second compound 0.316 µM,6.48
same,pIC50,second compound 1 µM,6.67
same,pIC50,second compound 3.16 µM,6.70
same,pIC50,second compound 10 µM,6.81
same,"viability, T/C",[1],84%
same,"viability, T/C",[2],76.2%
same,"viability, T/C",[3],52.9%
same,"viability, T/C",[4],29.1%
same,"viability, T/C",[5],18.7%
same,"viability, T/C",[6],13.8%
same,"viability, T/C",[7],101%
same,"viability, T/C",[8],90.3%
same,"viability, T/C",[9],40.1%
same,"viability, T/C",[10],25.8%
same,"viability, T/C",[11],17.7%
same,"viability, T/C",[12],9.91%
same,"viability, T/C",[13],66.2%
same,"viability, T/C",[14],92.2%
same,"viability, T/C",[15],51.3%
same,"viability, T/C",[16],24.8%
same,"viability, T/C",[17],18%
same,"viability, T/C",[18],13.3%
same,"viability, T/C",[19],77.7%
same,"viability, T/C",[20],74.5%
same,"viability, T/C",[21],37%
same,"viability, T/C",[22],25.3%
same,"viability, T/C",[23],18.9%
same,"viability, T/C",[24],12.5%
same,"viability, T/C",[25],90.6%
same,"viability, T/C",[26],64.5%
same,"viability, T/C",[27],40.2%
same,"viability, T/C",[28],23.9%
same,"viability, T/C",[29],20.6%
same,"viability, T/C",[30],12.3%
same,"viability, T/C",[31],70.3%
same,"viability, T/C",[32],56.8%
same,"viability, T/C",[33],39.6%
same,"viability, T/C",[34],23.2%
same,"viability, T/C",[35],17.2%
same,"viability, T/C",[36],9.31%
